# Patent publication US12440489B2 (priority 2016, dated 2025)
# What was measured:
# NR2B = assay: CNS phosphoprotein profile, NR2B phosphorylation at Tyr1472 in nucleus accumbens; format: in vivo, mice; details: 3 mg/kg; 30-60 minutes; mouse nucleus accumbens
# Experimental: (§1) A comprehensive molecular phosphorylation study is also carried out to examine the central nervous system (CNS) profile of the compounds of Example 1 and Example 3. The extent of protein phosphorylation for selected key central nervous system proteins is measured in mice nucleus accumbens.
# (§2) Mice were killed 30 minutes to 2 hours post-injection by focused microwave cranial irradiation, which preserves brain phosphoprotein as it exists at the time of death. Nucleus accumbens was then dissected from each mouse brain, sliced and frozen in liquid nitrogen. Samples were further prepared for phosphoprotein analysis via SDS-PAGE electrophoresis followed by phosphoprotein-specific immunoblotting, as described in Zhu H, et al., Brain Res. 2010 Jun 25; 1342:11-23. Phosphorylation at each site was quantified, normalized to total levels of the protein (non-phosphorylated), and expressed as percent of the level of phosphorylation in vehicle-treated control mice.
# 5-HT2 receptor = system: 5-HT2 receptor; design: species or system mice; details: mouse, in vivo; for block of DOI head twitch (in words): po
# ERK2 = assay: CNS phosphoprotein profile, ERK2 phosphorylation at Thr183 and Tyr185 in nucleus accumbens; format: in vivo, mice; details: 3 mg/kg; mouse nucleus accumbens
# Experimental: as §1, §2
# GluR1 = assay: CNS phosphoprotein profile, GluR1 phosphorylation at Ser845 in nucleus accumbens; format: in vivo, mice; details: 3 mg/kg; mouse nucleus accumbens
# Experimental: as §1, §2
# [1] = system: TH (tyrosine hydroxylase); assay: CNS phosphoprotein profile, tyrosine hydroxylase phosphorylation at Ser40 in nucleus accumbens; format: in vivo, mice; details: mouse nucleus accumbens; for effect on tyrosine hydroxylase phosphorylation at Ser40 (in words): 3 mg/kg, 30 minutes or 60 minutes; for increase in TH phosphorylation: haloperidol 2 mg/kg, risperidone dose not given
# Experimental: as §1, §2
# Mice = assay: Mouse marble-burying study (OCD model); format: in vivo; details: for Marbles Buried: of 15 marbles, 30 min
# Excerpt: The marble burying test is used to measure repetitive and anxiety-related behavior in rodents. It is based on the observation that rats and mice will bury either harmful or harmless objects in their bedding, and it has been used as an animal model to measure the effect of pharmacological interventions in treatment of repetitive behavior disorders, such as OCD.
# MPEP is a selective mGluR5 glutamate receptor antagonist. […] Mice in groups (1) are orally administered the vehicle, and mice in group (4) are given an intraperitoneal injection of MPEP just prior to the start of the test.
# The test is conducted in rectangular cages with 4-5 cm of wood chip bedding in a room with the window shades lowered and the door closed to minimize distractions. Fifteen clean marbles are evenly spaced on top of the bedding in three rows of five marbles. One mouse is placed in each cage. The mouse and cage is left undisturbed for 30 minutes. At the end of the test, the mouse is removed and the number of marbles buried to at least ⅔ of their depth is counted.
# Mu opiate receptor = Mu opiate receptor (Homo sapiens, UniProt P35372); format: binding
# Chain of Mu opiate receptor (P35372 whole entry): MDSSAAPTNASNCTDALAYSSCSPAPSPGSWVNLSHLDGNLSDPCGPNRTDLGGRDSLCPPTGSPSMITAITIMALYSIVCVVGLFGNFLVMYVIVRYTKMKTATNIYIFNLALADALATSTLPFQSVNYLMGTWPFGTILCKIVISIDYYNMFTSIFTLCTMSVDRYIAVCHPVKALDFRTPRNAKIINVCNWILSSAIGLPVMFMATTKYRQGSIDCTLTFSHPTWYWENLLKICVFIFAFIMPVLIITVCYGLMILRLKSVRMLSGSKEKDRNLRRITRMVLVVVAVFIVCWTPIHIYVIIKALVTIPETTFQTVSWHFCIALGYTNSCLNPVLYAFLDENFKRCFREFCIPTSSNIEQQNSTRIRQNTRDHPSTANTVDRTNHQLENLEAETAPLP
smiles,measurement,setting,value
"O=C1CN2c3c(cccc3[C@@H]3CN(CCCC(=O)c4ccc(F)cc4)CC[C@@H]32)N1 [Example 1, 4-((6bR,10aS)-2-Oxo-2,3,6b,9,10,10a-Hexahydro-1H,7H-Pyrido[3′,4′:4,5]Pyrrolo[1,2,3-De]Quinoxalin-8-Yl)-1-(4-Fluoro-Phenyl)-Butan-1-One]",effect on NR2B phosphorylation at Tyr1472 (in words),NR2B,neither the compound of Example 1 nor of Example 3 has a significant effect
same,EC50 for reducing DOI-induced head twitches,5-HT2 receptor,"0.23 mg/kg, p.o."
same,block of DOI head twitch (in words),5-HT2 receptor,potently block DOI head twitch
same,effect on ERK2 phosphorylation at Thr183 and Tyr185 (in words),ERK2,slight decrease
same,effect on GluR1 phosphorylation at Ser845 (in words),GluR1,slight increase
same,effect on tyrosine hydroxylase phosphorylation at Ser40 (in words),[1],neither the compound of Example 1 nor of Example 3 has a significant effect
"O=C1CN2c3c(cccc3[C@@H]3CN(CCCOc4ccc(F)cc4)CC[C@@H]32)N1 [Example 3, (6bR,10aS)-8-(3-(4-Fluorophenoxy)Propyl)-6b,7,8,9,10,10a-Hexahydro-1H-Pyrido[3′,4′:4,5]Pyrrolo[1,2,3-De]Quinoxalin-2(3H)-One]",Marbles Buried,Mice; 0.3 mg/kg orally 30 minutes prior to the test,9.3
same,decrease in marble burying compared to the control (in words),"Mice; 0.3 mg/kg, p <0.01",statistically significant decrease
same,effect on NR2B phosphorylation at Tyr1472 (in words),NR2B,neither the compound of Example 1 nor of Example 3 has a significant effect
same,EC50 for reducing DOI-induced head twitches,5-HT2 receptor,"0.44 mg/kg, p.o."
same,block of DOI head twitch (in words),5-HT2 receptor,potently block DOI head twitch
same,effect on ERK2 phosphorylation at Thr183 and Tyr185 (in words),ERK2,slight decrease
same,effect on GluR1 phosphorylation at Ser845 (in words),GluR1,slight increase
same,effect on tyrosine hydroxylase phosphorylation at Ser40 (in words),[1],neither the compound of Example 1 nor of Example 3 has a significant effect
"CN1CCN2c3c(cccc31)[C@@H]1CN(CCCC(=O)c3ccc(F)cc3)CC[C@@H]12 [Formula A, reference compound]",activity at the Mu opiate receptor (in words),Mu opiate receptor,not active
"CN1CCN2c3c(cccc31)[C@@H]1CN(CCCC(O)c3ccc(F)cc3)CC[C@@H]12 (stereo partly shown) [Formula B, reference compound]",EC50 for reducing DOI-induced head twitches,5-HT2 receptor,"0.31 mg/kg, p.o."
"Cc1cccc(C#Cc2ccccc2)n1 [MPEP, 2-methyl-6-(phenylethynyl)pyridine, reference compound]",Marbles Buried,Mice; 20 mg/kg intraperitoneal just prior to the test,0.2
"O=C(CCCN1CCC(O)(c2ccc(Cl)cc2)CC1)c1ccc(F)cc1 [haloperidol, reference compound]",increase in TH phosphorylation,[1],greater than 400%
"Cc1nc2n(c(=O)c1CCN1CCC(c3noc4cc(F)ccc34)CC1)CCCC2 [risperidone, reference compound]",increase in TH phosphorylation,[1],greater than 500%
